Measurements taken from the NIST ThermoML archive (doi:10.1021/acs.jced.9b00147).

Assay: xn = mol fraction of the nth substance listed
Conditions: 101.3 kPa, Liquid; for speed of sound: Single path-length method; for mass density: Vibrating tube method

CC(=O)[O-].OCC[NH2+]CCO [2,2'-azanediylbis(ethanol) acetate] + CC(C)O
Conditions	mass density, 293.15 K [kg/m3]	mass density, 303.15 K [kg/m3]	mass density, 313.15 K [kg/m3]	mass density, 323.15 K [kg/m3]	speed of sound, 293.15 K [m/s]	speed of sound, 303.15 K [m/s]	speed of sound, 313.15 K [m/s]	speed of sound, 323.15 K [m/s]
x1 = 0.102	857.7	849.5	841.1	832.5	1233.4	1200.3	1167.1	1133.6
x1 = 0.2	915.4	907.6	899.4	891.4	1301.5	1269.6	1237.8	1205.8
x1 = 0.299	965.3	957.7	949.8	942.3	1372.4	1341.2	1310.1	1279.1
x1 = 0.398	1009	1001	993.2	986.6	1448.2	1416.7	1386.3	1355.2
x1 = 0.502	1048	1041	1034	1025	1530.5	1498.3	1468.4	1438.7
x1 = 0.59	1076	1069	1061	1056	1596.5	1561.8	1530.4	1498.8
x1 = 0.696	1109	1102	1095	1089	1675.3	1638.8	1607	1576.7
x1 = 0.799	1137	1131	1124	1118	1756.3	1717.6	1684.7	1653.8
x1 = 0.9	1162	1155	1149	1142	1828.4	1782.1	1746.8	1714.4
x1 = 1	1180	1173	1167	1160	1884.7	1828.2	1788.6	1756

CC(=O)[O-].OCC[NH2+]CCO [2,2'-azanediylbis(ethanol) acetate] + CCCO
Conditions	mass density, 293.15 K [kg/m3]	mass density, 303.15 K [kg/m3]	mass density, 313.15 K [kg/m3]	mass density, 323.15 K [kg/m3]	speed of sound, 293.15 K [m/s]	speed of sound, 303.15 K [m/s]	speed of sound, 313.15 K [m/s]	speed of sound, 323.15 K [m/s]
x1 = 0.096	869.5	861.6	853.5	845.4	1286.3	1253.5	1221.2	1188.8
x1 = 0.199	929	921.2	913.4	905.7	1352.7	1321	1289.8	1258.8
x1 = 0.295	975	967.5	959.9	952	1415.2	1384.2	1353.6	1323.1
x1 = 0.4	1018	1012	1004	996.6	1488.2	1457.2	1427.3	1397.4
x1 = 0.501	1054	1047	1040	1033	1556.5	1524.7	1494.6	1465.4
x1 = 0.599	1085	1078	1072	1065	1626.4	1590.7	1559.2	1529.2
x1 = 0.697	1113	1106	1099	1093	1701.1	1657.4	1623.2	1592.3
x1 = 0.801	1137	1131	1124	1118	1756.5	1720.1	1688.9	1659.2
x1 = 0.901	1160	1153	1146	1140	1817.8	1772.9	1738.1	1707.4
x1 = 1	1180	1173	1167	1160	1884.7	1828.2	1788.6	1756

CC(=O)[O-].[NH3+]CCO [2-hydroxyethylammonium acetate] + CC(C)O
Conditions	mass density, 293.15 K [kg/m3]	mass density, 303.15 K [kg/m3]	mass density, 313.15 K [kg/m3]	mass density, 323.15 K [kg/m3]	speed of sound, 293.15 K [m/s]	speed of sound, 303.15 K [m/s]	speed of sound, 313.15 K [m/s]	speed of sound, 323.15 K [m/s]
x1 = 0.102	840.8	832.7	824.4	815.7	1218.6	1184.9	1151	1116.9
x1 = 0.2	888.4	880.8	872.9	864.8	1275.2	1242.9	1210.5	1177.8
x1 = 0.299	930.8	923.5	916	908.3	1334	1302.6	1271.5	1240.1
x1 = 0.397	970.4	963.3	956.2	948.5	1397.5	1366.2	1335.9	1305.6
x1 = 0.493	1007	999.7	992.8	985.5	1465.1	1435.1	1405.8	1376.6
x1 = 0.6	1042	1037	1030	1023	1549.8	1516.7	1487.9	1460.2
x1 = 0.692	1072	1066	1060	1052	1620.1	1588.6	1559.5	1532.3
x1 = 0.798	1103	1097	1091	1085	1701.8	1666.8	1638.2	1612
x1 = 0.894	1129	1124	1118	1112	1779	1742.8	1713.8	1687.8
x1 = 1	1150	1144	1139	1132	1812.9	1781.2	1754.7	1730.9

CC(=O)[O-].[NH3+]CCO [2-hydroxyethylammonium acetate] + CCCO
Conditions	mass density, 293.15 K [kg/m3]	mass density, 303.15 K [kg/m3]	mass density, 313.15 K [kg/m3]	mass density, 323.15 K [kg/m3]	speed of sound, 293.15 K [m/s]	speed of sound, 303.15 K [m/s]	speed of sound, 313.15 K [m/s]	speed of sound, 323.15 K [m/s]
x1 = 0.101	855.6	847.8	839.9	831.9	1274.5	1241.6	1208.9	1176.3
x1 = 0.199	900	892.5	884.8	877.1	1323.5	1291.7	1260.2	1228.7
x1 = 0.298	941.7	934.5	927.2	919.6	1377.3	1346.4	1316	1285.6
x1 = 0.401	981.1	974.1	967.3	960.3	1437.7	1407.8	1378.3	1348.9
x1 = 0.502	1016	1010	1003	996.3	1502	1472.9	1444.4	1416.3
x1 = 0.592	1046	1040	1033	1027	1561.1	1532.2	1504.3	1477
x1 = 0.681	1073	1067	1061	1055	1624.3	1595.1	1567.7	1541.3
x1 = 0.795	1104	1098	1092	1086	1711.5	1678.6	1650.8	1624
x1 = 0.89	1130	1124	1118	1112	1777.8	1743.4	1715.9	1690.2
x1 = 1	1150	1144	1139	1133	1812.9	1781.2	1754.7	1730.9
